# According to patent publication US20260159525A1, “TRICYCLIC HETEROCYCLES” (Merck Patent GmbH, priority 2021, published 2026):
# What was measured:
# Format in all cases: cell-based
# NCI-H226 cells = experiment: Viability assay in NCI-H226 (Yap-dependent) cells, CyQUANT; conditions: Homo sapiens, NCI-H226 YAP dependent cell line, 96 hour incubation, group symbols
# How it was run: (§1)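 Cells were seeded 24 h before dosing, then given a 10-point, 1:3 compound series from 30 μM final (0.3% DMSO) in duplicate. After 96 h at 37 °C, viability was read by CyQUANT DNA-dye fluorescence.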
# YAP-TEAD interaction = experiment: SK-HEP-1 reporter assay (8x TEAD responsive elements driving NanoLuc luciferase); conditions: Homo sapiens, SK-HEP1, SK-HEP-1 cells, 24 hour incubation
# How it was run: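 SK-HEP-1 cells carrying a stably integrated 8× TEAD-element NanoLuc reporter, seeded 24 h before dosing, were treated in duplicate with a 10-point dose series (top 30 μM final, 0.3% DMSO) for 24 h at 37°C, 5% CO2. Luciferase activity read by NanoGlo luminescence; IC50 derived from it.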
# SW620 Yap KO cells = experiment: Viability assay in SW620 Yap KO (Yap independent) cells, CyQUANT; conditions: Homo sapiens, SW-620, SW620 YAP and TAZ knocked out (YAP independent), 96 hour incubation, n.d. (x) = not detectable below threshold x
# How it was run: as §1
# [1] = number, or n.d. (x) = not detectable below threshold x
SMILES,IC50 (NCI-H226 cells),IC50 (YAP-TEAD interaction; [1]),IC50 (SW620 Yap KO cells),IC50 (YAP-TEAD interaction; group symbols)
"CNC(=O)c1cc2c3cn(C)nc3n(-c3ccc(C(F)F)cn3)c2s1 [Compound 119, 7-[5-(difluoromethyl)pyridin-2-yl]-N,4-dimethyl-9-thia-4,5,7-triazatricyclo[6.3.0.0^2,6]undeca-1(8),2,5,10-tetraene-10-carboxamide]",100 to 1000 nM,> 30000 nM,> 30000 nM,–
"Cn1cc2c3cc(C(=O)N[C@@H](CO)c4ccccn4)sc3n(-c3ccc(C(F)F)cn3)c2n1 [Compound 120, 7-[5-(difluoromethyl)pyridin-2-yl]-N-[(1R)-2-hydroxy-1-(pyridin-2-yl)ethyl]-4-methyl-9-thia-4,5,7-triazatricyclo[6.3.0.0^2,6]undeca-1(8),2,5,10-tetraene-10-carboxamide]",100 to 1000 nM,> 300 nM,> 30000 nM,–
"CNC(=O)c1cc2c3cn(C)nc3n(-c3ccc(OC(F)F)cn3)c2s1 [Compound 121, 7-[5-(difluoromethoxy)pyridin-2-yl]-N,4-dimethyl-9-thia-4,5,7-triazatricyclo[6.3.0.0^2,6]undeca-1(8),2,5,10-tetraene-10-carboxamide]",1 to 100 nM,> 30000 nM,> 30000 nM,–
"Cn1cc2c3cc(C(=O)N[C@@H](CO)c4ccccn4)sc3n(-c3ccc(OC(F)F)cn3)c2n1 [Compound 122, 7-[5-(difluoromethoxy)pyridin-2-yl]-N-[(1R)-2-hydroxy-1-(pyridin-2-yl)ethyl]-4-methyl-9-thia-4,5,7-triazatricyclo[6.3.0.0^2,6]undeca-1(8),2,5,10-tetraene-10-carboxamide]",1 to 100 nM,–,> 30000 nM,100 to 10000 nM
"C[C@H](CO)NC(=O)c1cc2c3cn(C)nc3n(-c3ccc(OC(F)F)cn3)c2s1 [Compound 123, 7-[5-(difluoromethoxy)pyridin-2-yl]-N-[(2R)-1-hydroxypropan-2-yl]-4-methyl-9-thia-4,5,7-triazatricyclo[6.3.0.0^2,6]undeca-1(8),2,5,10-tetraene-10-carboxamide]",1 to 100 nM,> 300 nM,> 30000 nM,–
"CNC(=O)c1cc2c3cn(C)nc3n(-c3ccc(OC(F)(F)F)cn3)c2s1 [Compound 124, N,4-dimethyl-7-[5-(trifluoromethoxy)pyridin-2-yl]-9-thia-4,5,7-triazatricyclo[6.3.0.0^2,6]undeca-1(8),2,5,10-tetraene-10-carboxamide]",1 to 100 nM,–,> 3000 nM,100 to 10000 nM
"Cn1cc2c3cc(C(=O)N[C@@H](CO)c4ccccn4)sc3n(-c3ccc(OC(F)(F)F)cn3)c2n1 [Compound 125, N-[(1R)-2-hydroxy-1-(pyridin-2-yl)ethyl]-4-methyl-7-[5-(trifluoromethoxy)pyridin-2-yl]-9-thia-4,5,7-triazatricyclo[6.3.0.0^2,6]undeca-1(8),2,5,10-tetraene-10-carboxamide]",1 to 100 nM,–,> 30000 nM,100 to 10000 nM
"C[C@H](CO)NC(=O)c1cc2c3cn(C)nc3n(-c3ccc(OC(F)(F)F)cn3)c2s1 [Compound 126, N-[(2R)-1-hydroxypropan-2-yl]-4-methyl-7-[5-(trifluoromethoxy)pyridin-2-yl]-9-thia-4,5,7-triazatricyclo[6.3.0.0^2,6]undeca-1(8),2,5,10-tetraene-10-carboxamide]",1 to 100 nM,–,> 30000 nM,10 to 100 nM
